{
  "source": "patent US12635691B2",
  "about": "“Fipronil containing insecticide gels” (Henkel AG & Co. KGaA, priority 2022, dated 2026)",
  "assay": "Migration of fipronil from the gel formula into the container, by container material",
  "type": "physicochemical",
  "method": "When the products are formulated in a gel medium, they are often packaged in the forms of capsules, syringes, or adhesive strips. The packaging materials frequently contain plastics. […] Such plastics may include, but are not limited to, polystyrene/butadiene blend, polyethylene (PE) thermoformed, or PET/PE copolymer […].\nFipronil has a solubility in water around 0.002 g/l (20° C.). At a level of […], fipronil is soluble in the water-based matrix because its solubility in water is 0.002 g/l (20° C., BASF SDS). However, although being soluble in the formula, fipronil tends to migrate, under room temperature conditions and in high temperatures (tested up to 54° C.), into the container (i.e., plastic packaging) depending on the material that the container is made of: • a. […] PET/PE thermoformed→Migration • c. Polyethylene thermoform→Migration • d. Polyethylene injected→No migration • e. Polystyrene→No migration • f. Polystyrene/Butadiene (4%)→migration",
  "note": "“Also recorded” adds a separate entry of the source.",
  "data": [
    {"smiles": "N#Cc1nn(-c2c(Cl)cc(C(F)(F)F)cc2Cl)c(N)c1[S+]([O-])C(F)(F)F", "note": "(stereo not drawn) [Fipronil, 1-[2,6-Cl2 4-CF3 phenyl] 3-CN 4-[SO—CF3] 5-NH2 pyrazole]", "values": [
      {"measurement": "Migration of fipronil into the container", "setting": "container: Glass (used as reference), room temperature and high temperatures (tested up to 54° C.)", "result": "No migration, formula stable; also recorded: no fipronil migration"},
      {"measurement": "Migration of fipronil into the container", "setting": "container: PET/PE thermoformed, room temperature and up to 54° C.", "result": "Migration"},
      {"measurement": "Migration of fipronil into the container", "setting": "container: Polyethylene injected, room temperature and up to 54° C.", "result": "No migration"},
      {"measurement": "Migration of fipronil into the container", "setting": "container: Polyethylene thermoform, room temperature and up to 54° C.", "result": "Migration"},
      {"measurement": "Migration of fipronil into the container", "setting": "container: Polystyrene/Butadiene (4%), room temperature and up to 54° C.", "result": "migration"},
      {"measurement": "Migration of fipronil into the container", "setting": "container: Polystyrene, room temperature and up to 54° C.", "result": "No migration"}
    ]}
  ]
}
